Data on 21 compounds can be found in US10301280B2 (Plexxikon Inc., priority 2012, dated 2019).

The IC50 is the concentration that inhibits the measured activity by half.

In the assay the target is c-kit mutant D816V (Homo sapiens (Human), UniProt P10721, D816V/DEL694-753). The assay can be described thus: c-Kit mutant D816V biochemical assay (AlphaScreen). The conditions noted are these: c-kit D816V biochemical inhibitory activity. Put shortly: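 His-tagged c-Kit D816V kinase domain (551-934, Δ694-753, E. coli) phosphorylating 30 nM biotin-(E4Y)10 at 10 μM ATP in HEPES pH 7.2 with Mg/Mn, 5% DMSO, 30 min at room temperature. PY20-acceptor/streptavidin-donor AlphaScreen detection after EDTA stop. IC50 from 8-point 1:3 titration.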
c-kit mutant D816V, sequence (P10721 other isoform, or with tags, fused parts or gaps D816V/del 694-753): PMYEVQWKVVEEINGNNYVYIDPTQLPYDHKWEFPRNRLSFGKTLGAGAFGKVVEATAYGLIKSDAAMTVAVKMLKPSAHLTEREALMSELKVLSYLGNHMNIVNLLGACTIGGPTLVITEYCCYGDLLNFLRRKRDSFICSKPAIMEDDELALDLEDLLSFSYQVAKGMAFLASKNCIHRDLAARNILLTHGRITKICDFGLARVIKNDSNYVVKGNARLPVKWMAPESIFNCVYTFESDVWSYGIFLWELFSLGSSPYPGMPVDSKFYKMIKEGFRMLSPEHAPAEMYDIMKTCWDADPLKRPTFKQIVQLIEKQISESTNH
`Cc1[nH]nc(C(=O)Nc2cnc3[nH]c(-c4ccc(N5CCOCC5)cc4)cc3c2)c1C` [P-2059, 4,5-dimethyl-N-[2-(4-morpholinophenyl)-1H-pyrrolo[2,3-b]pyridin-5-yl]-1H-pyrazole-3-carboxamide] yielded an IC50 of 0.0001 to 1 µM.

In the case of `Cc1n[nH]c(C(=O)Nc2cnc3[nH]c(-c4c(C)noc4C)cc3c2)c1C` [P-2065, N-[2-(3,5-dimethylisoxazol-4-yl)-1H-pyrrolo[2,3-b]pyridin-5-yl]-3,4-dimethyl-1H-pyrazole-5-carboxamide], the IC50 lay within 0.0001 to 1 µM.

`Cc1n[nH]c(C(=O)Nc2cnc3[nH]c(C4=CCN(C(=O)CN5CCOCC5)CC4)cc3c2)c1C` [P-2073, 3,4-dimethyl-N-[2-[1-(2-morpholinoacetyl)-3,6-dihydro-2H-pyridin-4-yl]-1H-pyrrolo[2,3-b]pyridin-5-yl]-1H-pyrazole-5-carboxamide] registered an IC50 of 0.0001 to 1 µM.

`Cc1n[nH]c(C(=O)Nc2cnc3[nH]c(-c4ccccc4)cc3c2)c1C` [P-2007, 3,4-dimethyl-N-(2-phenyl-1H-pyrrolo[2,3-b]pyridin-5-yl)-1H-pyrazole-5-carboxamide] displayed an IC50 of 0.0001 to 1 µM.

As for `Cc1n[nH]c(C(=O)Nc2cnc3[nH]c(C4=CCC(N)CC4)cc3c2)c1C` (stereo not drawn) [P-2080, N-[2-(4-aminocyclohexen-1-yl)-1H-pyrrolo[2,3-b]pyridin-5-yl]-3,4-dimethyl-1H-pyrazole-5-carboxamide], the IC50 was 0.0001 to 1 µM.

For `Cc1n[nH]c(C(=O)Nc2cnc3[nH]c(-c4cccc(N5CCCC5)c4)cc3c2)c1C` [P-2079, 3,4-dimethyl-N-[2-(3-pyrrolidin-1-ylphenyl)-1H-pyrrolo[2,3-b]pyridin-5-yl]-1H-pyrazole-5-carboxamide], the IC50 lay within 0.0001 to 1 µM.

Regarding `Cc1n[nH]c(C(=O)Nc2cnc3[nH]c(-c4cccc(N5CCN(C(=O)C6CC6)CC5)c4)cc3c2)c1C` [P-2118, N-[2-[3-[4-(cyclopropanecarbonyl)piperazin-1-yl]phenyl]-1H-pyrrolo[2,3-b]pyridin-5-yl]-3,4-dimethyl-1H-pyrazole-5-carboxamide], the IC50 was in the range of 0.0001 to 1 µM.

In turn, `Cc1n[nH]c(C(=O)Nc2cnc3[nH]c(-c4ccc(C#N)c(N5CCOCC5)c4)cc3c2)c1C` [P-2081, N-[2-(4-cyano-3-morpholino-phenyl)-1H-pyrrolo[2,3-b]pyridin-5-yl]-3,4-dimethyl-1H-pyrazole-5-carboxamide] came in with an IC50 of 0.0001 to 1 µM.

As to `O=C(Nc1cnc2[nH]c(-c3ccccc3)cc2c1)c1[nH]ncc1Br` [P-2005, 4-bromo-N-(2-phenyl-1H-pyrrolo[2,3-b]pyridin-5-yl)-1H-pyrazole-5-carboxamide], the IC50 lay in the range of 0.0001 to 1 µM.

As for `CNC(=O)c1ccc(-c2cc3cc(NC(=O)c4[nH]nc(C)c4C)cnc3[nH]2)cc1` [P-2067, 3,4-dimethyl-N-[2-[4-(methylcarbamoyl)phenyl]-1H-pyrrolo[2,3-b]pyridin-5-yl]-1H-pyrazole-5-carboxamide], the IC50 lay in the range of 0.0001 to 1 µM.

In turn, `Cc1n[nH]c(C(=O)Nc2cnc3[nH]c(-n4cccn4)cc3c2)c1C` [P-2112, 3,4-dimethyl-N-(2-pyrazol-1-yl-1H-pyrrolo[2,3-b]pyridin-5-yl)-1H-pyrazole-5-carboxamide] returned an IC50 of 0.0001 to 1 µM.

Turning to `CC(=O)N1CC=C(c2cc3cc(NC(=O)c4[nH]nc(C)c4Cl)cnc3[nH]2)CC1` [P-2061, N-[2-(1-acetyl-3,6-dihydro-2H-pyridin-4-yl)-1H-pyrrolo[2,3-b]pyridin-5-yl]-4-chloro-3-methyl-1H-pyrazole-5-carboxamide], the half-inhibitory concentration (IC50) is 0.0001 to 1 µM.

Consider `Cc1n[nH]c(C(=O)Nc2cnc3[nH]c(C4=CCN(C(=O)C(O)CO)CC4)cc3c2)c1C` (stereo not drawn) [P-2074, N-[2-[1-(2,3-dihydroxypropanoyl)-3,6-dihydro-2H-pyridin-4-yl]-1H-pyrrolo[2,3-b]pyridin-5-yl]-3,4-dimethyl-1H-pyrazole-5-carboxamide], for which the half-maximal inhibitory concentration (IC50) fell in the range of 0.0001 to 1 µM.

The compound `Cc1n[nH]c(C(=O)Nc2cnc3[nH]c(C4=CCN(C(=O)N5CCOCC5)C4)cc3c2)c1Cl` [P-2062, 4-chloro-3-methyl-N-[2-[1-(morpholine-4-carbonyl)-2,5-dihydropyrrol-3-yl]-1H-pyrrolo[2,3-b]pyridin-5-yl]-1H-pyrazole-5-carboxamide] returned an IC50 of 0.0001 to 1 µM.

`Cc1n[nH]c(C(=O)Nc2cnc3sc(-c4ccccc4)nc3c2)c1C` [P-2144, 3,4-dimethyl-N-(2-phenylthiazolo[5,4-b]pyridin-6-yl)-1H-pyrazole-5-carboxamide] had a concentration for half-maximal inhibition (IC50) of 1 to 10 µM.

Turning to `Cc1n[nH]c(C(=O)Nc2cnc3[nH]c(C4=CCN(C(=O)C5CC5)C4)cc3c2)c1Cl` [P-2060, 4-chloro-N-[2-[1-(cyclopropanecarbonyl)-2,5-dihydropyrrol-3-yl]-1H-pyrrolo[2,3-b]pyridin-5-yl]-3-methyl-1H-pyrazole-5-carboxamide], the IC50 lay within 0.0001 to 1 µM.

`Cc1[nH]nc(C(=O)Nc2cnc3[nH]c(-c4ccnc(N5CCN(C)CC5)c4)cc3c2)c1C` [P-2069, 4,5-dimethyl-N-[2-[2-(4-methylpiperazin-1-yl)-4-pyridyl]-1H-pyrrolo[2,3-b]pyridin-5-yl]-1H-pyrazole-3-carboxamide] yielded a concentration for half-maximal inhibition (IC50) of 0.0001 to 1 µM.

In turn, `Cc1[nH]nc(C(=O)Nc2cnc3[nH]c(-c4cccc(N5CCOCC5)c4)cc3c2)c1C` [P-2070, 4,5-dimethyl-N-[2-(3-morpholinophenyl)-1H-pyrrolo[2,3-b]pyridin-5-yl]-1H-pyrazole-3-carboxamide] showed an IC50 of 0.0001 to 1 µM.

Turning to `Cc1cc(C(=O)Nc2cnc3[nH]c(-n4cccn4)cc3c2)[nH]n1` [P-2116, 3-methyl-N-(2-pyrazol-1-yl-1H-pyrrolo[2,3-b]pyridin-5-yl)-1H-pyrazole-5-carboxamide], the IC50 lay in the range of 1 to 10 µM.

`Cc1n[nH]c(C(=O)Nc2cnc3[nH]c(-c4ccc(C(=O)NC5CC5)cc4)cc3c2)c1C` [P-2148, N-[2-[4-(cyclopropylcarbamoyl)phenyl]-1H-pyrrolo[2,3-b]pyridin-5-yl]-3,4-dimethyl-1H-pyrazole-5-carboxamide] gave an IC50 of 0.0001 to 1 µM.

Take `Cc1n[nH]c(C(=O)Nc2cnc3[nH]c(-c4cccc(N(C)C)c4)cc3c2)c1C` [P-2064, N-[2-[3-(dimethylamino)phenyl]-1H-pyrrolo[2,3-b]pyridin-5-yl]-3,4-dimethyl-1H-pyrazole-5-carboxamide]: the IC50 is 0.0001 to 1 µM.
